Laboratory results: patent publication US20070078180A1, “Methods and compositions for stabilizing an antioxidant” (priority 2005, published 2007)

What was measured:
[1] = Effect of UVB radiation on stability of CoQ10 in PBS buffer (HPLC); type: physicochemical
Protocol: (§1) HPLC Methods. To measure CoQ10 levels in tissue culture medium, an appropriate high performance liquid chromatography (“HPLC”) method had to be established.
(§2) For the instant examples, a reliable HPLC method was established for CoQ10 using an isochratic method with a mobile phase of 85% methanol and 15% hexane. CoQ10 was detected at 275 nm.
(§3) HPLC Analysis of CoQ10. The amount of CoQ10 remaining in degradation experiments below were determined by High Pressure Liquid Chromatography (HPLC). The column used was a Microsorb C18 reverse phase column (15 cm×0.46 cm), the mobile phase consisted of 85% methanol and 15% hexane at a flow rate of 1 ml/minute and CoQ10 was detected at […]. The instrument used was a HP 1090 gradient HPLC system with photodiode array detector and autosampler.
(§4) Methods and Materials. The following experiment involved examining the effect of ultraviolet radiation (“UVR”) on levels of CoQ10 in culture medium. More specifically, ultraviolet-B (“UVB,” which is ultraviolet radiation ranging from about 290 nm to about 320 nm) dose-response studies were conducted on various concentrations of CoQ10 placed in either PBS buffer or into culture media. Doses of UVB ranged from 50 mJ to 200 mJ. In the culture media, 10 μm of CoQ10 was placed in a fibroblast culture for 24 hours.

[2] = Effect of UVB radiation on stability of CoQ10 in culture with fibroblasts (HPLC); type: physicochemical; conditions: fibroblast culture, 10 μM CoQ10, 24 hours
Protocol: as §1, §2, §3, §4

MMP-1 [3] = experiment: UV-induced MMP-1 in dermal fibroblasts (ELISA); type: cell-based, human; conditions: 10 micromolar, 50 mJ UV, 24 hours
Text: (§5) Methods and Materials. The following experiment involved examining the effect of CoQ10 on UVR-induced inflammatory mediators in human dermal fibroblasts. That is, because skin aging is known to be accelerated by inflammatory cytokines produced in the skin by UVR, this experiment assessed the ability of CoQ10 to inhibit the production of the inflammatory mediators produced in human dermal fibroblasts in response to either UVB radiation or to stimulation by IL-1, a pro-inflammatory cytokine produced in keratinocytes by UVR.
(§6) The dose of UV for stimulating the production in fibroblasts of each of the inflammatory mediators—PGE-2, IL-6, IL-8, and the matrix metalloproteinase (“MMP-1”)—was 50 mJ.
(§7) The cells were isolated and cultured as follows. […]
(§8) For the experiments, cells were seeded into 12 well culture dishes in complete growth medium at a density of 10^5 cells/well and allowed to attach overnight. […] Cells were incubated for 24 hours at 37° C., at which time the media was removed for assay and the cells counted. […]

IL-6 = experiment: UV-induced IL-6 in dermal fibroblasts (ELISA); type: cell-based, human; conditions: 10 micromolar, 24 hours
Text: as §5, §6, §7, §8

PGE-2 [4] = experiment: UV-induced PGE-2 in dermal fibroblasts (ELISA); type: cell-based, human; conditions: UVB doses of 75 mJ, 100 mJ and 125 mJ; 10 μM
Text: Methods and Materials. The following experiment involved examining the effect of CoQ10 on UVR-induced inflammatory mediators in human dermal fibroblasts. That is, because skin aging is known to be accelerated by inflammatory cytokines produced in the skin by UVR, this experiment assessed the ability of CoQ10 to inhibit the production of the inflammatory mediators produced in human dermal fibroblasts in response to either UVB radiation or to stimulation by IL-1, a pro-inflammatory cytokine produced in keratinocytes by UVR. […]
The cells were isolated and cultured as follows. The dermal fibroblasts were isolated from human neonatal foreskin and cultured in Dulbecco's modified eagle media with L-glutamine and 4.5 mM glucose and without sodium pyruvate (“DMEM”) (available from Fisher Scientific, Pittsburgh, Pa.) containing 5% horse serum (available from Hyclone, Logan, Utah), 5% fetal bovine serum (available from Hyclone), and penicillin/streptomycin (100 U/100 μg/ml). Cell cultures were grown at 37° C. in a humidified CO2 incubator (5% CO2). […]
as §8

PGE-2 [5] = experiment: IL-1-induced PGE-2 in dermal fibroblasts; type: cell-based, human; conditions: 24 hours
Protocol: The cells were isolated and cultured as follows. The dermal fibroblasts were isolated from human neonatal foreskin and cultured in Dulbecco's modified eagle media with L-glutamine and 4.5 mM glucose and without sodium pyruvate (“DMEM”) (available from Fisher Scientific, Pittsburgh, Pa.) containing 5% horse serum (available from Hyclone, Logan, Utah), 5% fetal bovine serum (available from Hyclone), and penicillin/streptomycin (100 U/100 μg/ml). Cell cultures were grown at 37° C. in a humidified CO2 incubator (5% CO2). Cells were passaged prior to confluence by removing cells with a trypsin/EDTA solution, followed by centrifugation and re-seeding.
For the experiments, cells were seeded into 12 well culture dishes in complete growth medium at a density of 10^5 cells/well and allowed to attach overnight. The medium was then replaced with PBS for irradiation. A bank of two commercially available FS20 lamps were used for irradiation of cells. […] Cells were incubated for 24 hours at 37° C., at which time the media was removed for assay and the cells counted. […]
The impact of CoQ10, colorless carotenoids, and a combination of both on PGE-2 in fibroblasts stimulated with IL-1 was examined. […] All of the plates were then incubated for 24 hours and then the media was removed from culture and cells counted.

MMP-1 [6] = experiment: IL-1-induced MMP-1 in dermal fibroblasts (ELISA); type: cell-based, human; conditions: Example 3; CoQ10 10 μM, 24 hours
[7] = Degradation by hydroxyl radicals from the Fenton reaction (HPLC); type: physicochemical; conditions: room temperature, one hour
Protocol: as §3
Methods and Materials. The following experiment examined the effect of the hydroxyl radical on CoQ10. The hydroxyl radical is a reactive oxygen species (“ROS”) produced in the human body. The radical is generated by the reaction of iron with hydrogen peroxide (commonly called the Fenton reaction).
For this experiment, CoQ10 was prepared in a solution of chloroform/ethanol (1:1) at a concentration of 10 micrograms/ml. The Fenton reaction was then initiated by the addition of hydrogen peroxide and iron (III) chloride and allowed to proceed at room temperature for one hour, at which time samples were injected on HPLC.

[8] = Oxidation of CoQ10 by sodium hypochlorite, with or without lycopene (HPLC); type: physicochemical
Protocol: as §3
Methods and Materials. The following experiment examined the effect of sodium hypochlorite on CoQ10.
For this experiment, CoQ10 was prepared in HPLC “mobil phase” (methanol:hexane) and incubated with different concentrations of sodium hypochlorite prepared in water/methanol. The reaction was allowed to proceed for up to 30 minutes, at which time samples were injected on HPLC.
The stock lycopene was 10 mg/ml in soybean oil. It was diluted into toluene and used in the reaction at 0.1% lycopene. To allow the CoQ10, hypochlorite aqueous solution and lycopene to react, a detergent was used to bring the polar and nonpolar phases together. The incubation lasted for 30 minutes.

[9] = Oxidation of CoQ10 by 0.03% hypochlorite, with lycopene or colorless carotenoids (HPLC); type: physicochemical; conditions: Example 7, 1.5 hours
Protocol: as §3
Methods and Materials. The following experiment was a comparison of the impact that colorless carotenoids or lycopene have on CoQ10 when CoQ10 is exposed to hypochlorite oxidation.
695 μg/ml of CoQ10 was prepared in chloroform/ethanol (1:1). The calculated amounts of phytoene and phytofluene used in the study was 0.0142% and 0.0012%, respectively. The calculated amount of lycopene was 2 mg/ml in chloroform. Four plates of cells were prepared and allowed to attach overnight as described above. CoQ10 was then added to each of the plates. Further, lycopene was added to one of the plates, and the carotenoids were added to another. Three plates (one of the plates containing only CoQ10 was treated as a control) were then incubated with 0.03% hypochlorite (“HOCL”) for 1.5 hours. Then the samples were removed and assayed by HPLC to determine CoQ10 levels.

[10] = Oxidation of CoQ10 by potassium hydroxide, with or without colorless carotenoids (HPLC); type: physicochemical; conditions: 600 μM CoQ10, 1 mM KOH, 30 minutes, room temperature
Protocol: as §3
Methods and Materials. The following experiment examined whether colorless carotenoids could protect CoQ10 from potassium hydroxide oxidation.
600 μM of CoQ10 was prepared in chloroform stock. 500 μg/ml of the colorless carotenoids was prepared in DMSO. The calculated amount of potassium hydroxide (“KOH”) was 1 mM. Three plates of cells were prepared and allowed to attach overnight as described above. CoQ10 was then added to each of the plates. Further, KOH was added to two of the plates (one was maintained as a control containing only CoQ10). Further, the carotenoids were added to one of the plates containing KOH. Reactions were performed in a total volume of 1 ml. The cells containing KOH were incubated for 30 minutes at room temperature with the KOH. Then the samples were removed and assayed by HPLC to determine CoQ10 levels.

[11] = Solubility of CoQ10 in solvents compatible with cultured cells; type: physicochemical
Text: Because of the very poor solubility of CoQ10 in any solvent that is compatible with cultured cells, 10 μm of CoQ10 was the maximum final concentration that could be used in culture medium.

Compound | stability of CoQ10 to UVB ([1]; UVB doses 50 mJ to 200 mJ) | decrease in the concentration of CoQ10 ([1]; high UVB doses, within experimental error) | amount of CoQ10 after UVB radiation [2] | level of UVR-induced MMP1 (MMP-1 [3]) | level of IL-6 induced in UVR-treated fibroblasts (IL-6) | effect on levels of PGE-2 after UVB irradiation (PGE-2 [4]) | IL-1 induction of PGE-2 (PGE-2 [5]; Example 2, 10 micromolar, IL-1 100 picograms/ml) | inhibition at 10 µM (PGE-2 [5]; Homo sapiens, Fibroblast, Example 3, CoQ10 10 μM, colorless carotenoid 15 micrograms/ml, read-out: inhibition of the IL-1 induction of PGE-2) [%] | blocking the IL-1 induction in MMP-1 (MMP-1 [6]) | abundance or structure after the Fenton reaction ([7]; 10 micrograms/ml in chloroform/ethanol (1:1)) | loss of CoQ10 caused by sodium hypochlorite ([8]; Example 5, methanol:hexane, up to 30 minutes) [%] | loss of CoQ10 caused by hypochlorite ([9]; 695 μg/ml CoQ10, 0.03% hypochlorite) [%] | loss of CoQ10 due to oxidation by potassium hydroxide [10] [%] | solubility ([11]; any solvent compatible with cultured cells) | maximum final concentration that could be used in culture medium ([11]; culture medium) [μm] | reduction of amount by the Fenton reaction ([7]; hydrogen peroxide and iron (III) chloride) [%] | oxidation of CoQ10 by hypochlorite in the presence of the carotenoid ([8]; Example 6, 0.1% lycopene, detergent, 30 minutes) | oxidation of CoQ10 by hypochlorite in the presence of the carotenoid ([9]; 0.03% hypochlorite, lycopene 2 mg/ml, or phytoene 0.0142% and phytofluene 0.0012%)
COC1=C(OC)C(=O)C(C/C=C(\C)CC/C=C(\C)CC/C=C(\C)CC/C=C(\C)CC/C=C(\C)CC/C=C(\C)CC/C=C(\C)CC/C=C(\C)CC/C=C(\C)CCC=C(C)C)=C(C)C1=O [CoQ10, coenzyme Q10] | exhibited stability | < 10 | generally unaffected | back to near control levels | markedly lowered | only a small inhibitory effect | significant reduction | 16 | ineffective | did not cause a reduction | 50 | 60 | 80 | very poor | 10 |  |  | 
CC(C)=CCC/C(C)=C/C=C/C(C)=C/C=C/C(C)=C/C=C/C=C(C)/C=C/C=C(C)/C=C/C=C(\C)CCC=C(C)C [lycopene] |  |  |  |  |  |  |  |  |  |  |  |  |  |  |  | 50 | significantly reduced | caused a reduction in oxidation
